The results in this text go back to publication PMC10111420, “Optimization of Host Cell-Compatible, Antimicrobial Peptides Effective against Biofilms and Clinical Isolates of Drug-Resistant Bacteria” (ACS Infectious Diseases, 2023).

This experiment has as its system wound infections. Description: Murine wound model, once or twice per day dosing and viscous polymer formulations. Format: in vivo, mice. The settings on record: 75 μg of peptide in 20 μL of buffer (PBS). An excerpt: Preliminary data had shown that once per day treatments in a simple aqueous vehicle were ineffective against wound infections in this model, see Figure S2. Three times per day is required for efficacy in simple media, Figure 8. Therefore, we also tested the effectiveness of D-CONGA-Q7 formulated in aqueous suspensions of carboxymethyl cellulose and Xanthan gum, which are anionic carbohydrate polymers that create highly viscous solutions at ∼1% w/v concentration. […] Clinically useful formulations of these peptides may be straightforward to develop.
Figure S2. Activity of D-CONGA-Q7 in wound model using 1x and 2x per day administration. Experiments were performed as described in main text, except that treatments with 75 μg of peptide in 20 μL of buffer were administered only once or twice per day. Bacterial […]
in PBS. Also, Tegaderm biofilm formation is not inhibited by peptide under these conditions.
Results for three times per day administration are shown in Figs. 8&9 of the main manuscript.
(1 picture or pasted object on this page, not shown here)
Radial diffusion results Murine wound infection
A C 6 hour incubation E 10 Once per day treatment with:
1.0 Buffer and viscous polymers D-CONGA-Q7 in 0.75% CMC
Peptide concentration (µM)
B D 24 hour incubation Once per day treatment with:
Buffer and viscous polymers 0.75% XG Vehicle only
1.0% XG D-CONGA-Q7 in 0.75% XG […]

Where a SMILES comes first, the peptide text is derived from it. [ ]: non-standard residue; d: D form.

Turning to `CC(C)C[C@@H](NC(=O)[C@@H](CCC(N)=O)NC(=O)[C@@H](CCCNC(=N)N)NC(=O)[C@@H](CCCNC(=N)N)NC(=O)[C@@H](C)NC(=O)[C@@H](Cc1c[nH]c2ccccc12)NC(=O)[C@@H](CCCNC(=N)N)NC(=O)[C@H](N)CCCNC(=N)N)C(=O)N[C@H](C)C(=O)N[C@H](Cc1ccccc1)C(=O)N[C@H](C)C(=O)N[C@H](Cc1ccccc1)C(=O)N[C@H](CCCNC(=N)N)C(=O)N[C@H](CCCNC(=N)N)C(N)=O` [D-CONGA-Q7] (H-[dR][dR][dW][dA][dR][dR][dQ][dL][dA][dF][dA][dF][dR][dR]-NH2; N-terminus assumed), the “Tegaderm biofilm formation, once or twice per day administration” value was “not inhibited” and the “Wound bacterial burden, once or twice per day administration” value is “not reduced significantly”.
